Reference: US20180290977A1, “KDM4 INHIBITORS” (Albert-Ludwigs-University Freiburg, priority 2017, published 2018)
pIC50: −log10 of the molar value. Where two headings read alike, the source gives them in different places.

Tests used:
KDM4A = target: T1, KDM4A (Homo sapiens, UniProt O75164); assay: KDM demethylase inhibition (IC50); type: biochemical
T1 sequence (O75164 1-1064): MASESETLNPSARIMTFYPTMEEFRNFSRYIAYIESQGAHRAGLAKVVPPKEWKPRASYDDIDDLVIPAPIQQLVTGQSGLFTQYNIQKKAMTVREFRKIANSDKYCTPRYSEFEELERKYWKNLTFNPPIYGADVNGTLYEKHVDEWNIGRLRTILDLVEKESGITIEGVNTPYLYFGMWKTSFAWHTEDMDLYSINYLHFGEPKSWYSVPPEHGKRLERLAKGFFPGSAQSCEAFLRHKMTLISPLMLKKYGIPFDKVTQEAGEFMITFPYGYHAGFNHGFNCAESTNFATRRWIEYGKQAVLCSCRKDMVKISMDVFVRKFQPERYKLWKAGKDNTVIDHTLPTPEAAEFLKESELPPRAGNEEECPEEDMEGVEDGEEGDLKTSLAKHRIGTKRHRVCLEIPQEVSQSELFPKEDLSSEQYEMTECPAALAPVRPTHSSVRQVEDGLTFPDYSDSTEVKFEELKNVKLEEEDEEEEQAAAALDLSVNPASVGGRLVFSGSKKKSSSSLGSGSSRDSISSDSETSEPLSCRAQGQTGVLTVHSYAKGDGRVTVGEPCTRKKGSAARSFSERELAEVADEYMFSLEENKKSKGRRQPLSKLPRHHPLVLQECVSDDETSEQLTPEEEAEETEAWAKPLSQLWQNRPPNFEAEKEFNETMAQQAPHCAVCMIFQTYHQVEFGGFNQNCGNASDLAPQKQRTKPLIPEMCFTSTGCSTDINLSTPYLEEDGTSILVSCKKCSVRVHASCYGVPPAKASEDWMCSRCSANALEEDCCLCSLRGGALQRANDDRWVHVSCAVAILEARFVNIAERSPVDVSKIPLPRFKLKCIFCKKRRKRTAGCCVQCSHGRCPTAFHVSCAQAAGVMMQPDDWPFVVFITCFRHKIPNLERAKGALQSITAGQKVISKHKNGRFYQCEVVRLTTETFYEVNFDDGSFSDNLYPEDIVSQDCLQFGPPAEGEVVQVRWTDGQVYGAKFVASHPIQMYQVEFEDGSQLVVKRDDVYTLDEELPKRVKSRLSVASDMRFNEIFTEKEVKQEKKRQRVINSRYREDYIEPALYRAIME

KDM2B = target: T2, KDM2B (Homo sapiens, UniProt Q8NHM5); assay: KDM demethylase inhibition (IC50); type: biochemical
T2 sequence (Q8NHM5 1-1336): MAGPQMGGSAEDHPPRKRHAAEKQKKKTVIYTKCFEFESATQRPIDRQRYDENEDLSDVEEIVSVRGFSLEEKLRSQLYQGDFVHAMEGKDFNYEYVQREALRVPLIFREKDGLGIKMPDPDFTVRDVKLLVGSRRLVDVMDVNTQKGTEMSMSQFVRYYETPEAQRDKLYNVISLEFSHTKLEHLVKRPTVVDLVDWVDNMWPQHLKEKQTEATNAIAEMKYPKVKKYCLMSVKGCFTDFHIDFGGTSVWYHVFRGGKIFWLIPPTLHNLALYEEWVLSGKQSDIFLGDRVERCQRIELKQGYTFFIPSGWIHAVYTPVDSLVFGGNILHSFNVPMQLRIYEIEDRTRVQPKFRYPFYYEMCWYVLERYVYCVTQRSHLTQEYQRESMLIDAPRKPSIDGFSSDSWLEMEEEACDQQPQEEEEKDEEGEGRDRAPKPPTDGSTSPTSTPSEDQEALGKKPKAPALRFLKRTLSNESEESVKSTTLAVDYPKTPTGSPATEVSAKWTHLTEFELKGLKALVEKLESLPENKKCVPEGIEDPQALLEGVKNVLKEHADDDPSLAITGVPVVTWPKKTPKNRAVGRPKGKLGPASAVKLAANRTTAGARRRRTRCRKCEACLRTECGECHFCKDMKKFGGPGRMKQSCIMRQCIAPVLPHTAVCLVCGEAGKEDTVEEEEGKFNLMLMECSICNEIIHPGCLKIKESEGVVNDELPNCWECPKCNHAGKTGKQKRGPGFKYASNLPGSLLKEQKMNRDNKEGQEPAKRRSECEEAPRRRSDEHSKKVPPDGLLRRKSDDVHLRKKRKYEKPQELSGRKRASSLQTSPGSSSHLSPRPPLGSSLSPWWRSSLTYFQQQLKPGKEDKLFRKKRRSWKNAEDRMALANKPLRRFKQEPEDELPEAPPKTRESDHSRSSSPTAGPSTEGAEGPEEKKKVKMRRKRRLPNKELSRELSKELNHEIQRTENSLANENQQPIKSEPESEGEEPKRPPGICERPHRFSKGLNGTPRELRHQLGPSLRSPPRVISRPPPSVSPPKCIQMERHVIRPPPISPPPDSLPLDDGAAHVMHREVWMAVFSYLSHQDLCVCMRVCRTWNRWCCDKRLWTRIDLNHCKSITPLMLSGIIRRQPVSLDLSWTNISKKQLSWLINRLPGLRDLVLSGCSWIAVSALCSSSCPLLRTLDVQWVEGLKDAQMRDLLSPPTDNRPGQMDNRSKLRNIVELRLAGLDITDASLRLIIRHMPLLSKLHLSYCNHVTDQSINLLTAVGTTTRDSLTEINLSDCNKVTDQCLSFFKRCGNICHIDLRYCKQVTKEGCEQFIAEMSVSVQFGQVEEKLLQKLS

[1] = Pharmacokinetic study iv/po; type: in vivo; conditions: Dose iv/po 5/10 mg/kg

## CN(c1ccccc1)c1ccc2c(c1)CCC[C@H]2CNc1cnccc1C(=O)O [Compound I, 3-({[(1R)-6-[methyl(phenyl)amino]-1,2,3,4-tetrahydronaphthalen-1-yl]methyl}amino)pyridine-4-carboxylic Acid]
KDM4A; read-out: Compound I IC50
  pIC50: 6.98
KDM4A; read-out: IC50, demethylase activity
  pIC50: > 6.98
KDM2B
  pIC50: < 5.00
[1]
  po 1/2: 2.57 h
[1]; plasma, 5 mg/kg, read-out: Vz (mL/kg), apparent volume of distribution during terminal phase
  Vd: 666 mL/kg
[1]; plasma
  AUC: 10400 ng·h/mL
